# Where two headings read alike, the source gives them in different places.
# Columns and labels:
# rats [1] = assay: Pharmacological characteristics at equivalent doses (2×ED50) in rats; conditions: 2×ED50, tail vein; for Adverse reactions: Red urine (incidence): DMSO solution (DMSO alone 10/10); for Onset time: time of LORR; for Adverse reactions: Tremor (incidence): animals affected/animals
# How it was run: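 Adult male Sprague-Dawley rats (250-300 g, n=8) received each drug at twice its ED50 via tail vein (0.6 mL at 0.1 mL/s). Onset of anesthesia taken as time to LORR.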
# rats [2] = assay: Loss of righting reflexes (LORR) assay in rats, ED50 by up and down method; type: in vivo, rat; conditions: Rattus norvegicus, tail vein, class symbols
# How it was run: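 Adult male Sprague-Dawley rats (250-300 g) dosed i.v. via tail vein at 0.1 mL/s. Anesthesia scored as loss of righting reflex lasting >30 s; ED50 derived by up-and-down method.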
# rats [3] = type: in vivo, rat; conditions: rats of the MAP/HR figures, 2×ED50, tail vein; same value in min
# How it was run: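 Rats implanted with telemetry (left ventricular and abdominal aortic catheters, ECG leads) at least one week before recording; compounds given via lateral tail-vein catheter. MAP and HR sampled every 15 s for 30 min before and after dosing to judge hemodynamic stability.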
# rats [4] = system: rats
# Procedure: Pharmacological Effects of the Compounds on Continuous Infusion in Rats
# Adult male Sprague-Dawley rats with body weight ranging from 250 to 300 gm were selected for continuous infusion test. […] Time to recovery of righting reflex from stopping infusion, and time to fully awake from stopping infusion were recorded.
# rats [5] = type: in vivo, rat; conditions: rats of the MAP/HR figures, 2×ED50, tail vein
# rats [6] = system: rats; remark: listed apart in the source
# Procedure: Adult male Sprague-Dawley rats (250-300 g) were selected for the experiment. […] The anesthesia effects of the compounds were assessed in rats using a LORR assay and a period >30 s was considered as an indicator of general anesthesia. Then the up and down method was used to determine 50% effective dose (ED50). The drugs were administered through the tail vein of rats in a volume of 0.6 mL and at a rate of 0.1 mL/s.
# [7] = system: secretion of cortisol, H295R cell line; assay: cells; type: cell-based; conditions: for Cortisol as an indicator to determine the presence of inhibition: H295R; for EC50: Homo sapiens, NCI-H295R, read-out: EC50 (Cortisol)
# Procedure: (§1) The Effects of the Compounds on Adrenocortical Function In Vitro Test
# (§2) Then secretion of the cortisol and corticosterone in the supernatant, was measured using HPLC-MS/MS method to determine whether the compounds of the present invention had adrenotoxic potential.
# [8] = system: secretion of corticosterone, H295R cell line; assay: cells; type: cell-based; conditions: for Corticosterone as an indicator to determine the presence of inhibition: H295R; for EC50: Homo sapiens, NCI-H295R, read-out: EC50 (Corticosterone)
# Procedure: as §1, §2
# [9] = emulsion, continuous infusion at 2×MIR
# [10] = continuous tail vein infusion at 2×MIR, LORR maintained 1 hour, Table C4
Structure (SMILES),Righting reflex duration (rats [1]),Adverse reactions: Red urine (incidence) (rats [1]),Onset time (rats [1]),ED50 (rats [2]),recovery time of the test animals' righting reflex (rats [3]),Recovery time after stopping infusion (rats [4]; after 1 hour infusion at 2×MIR),Adverse reactions: Tremor (incidence) (rats [4]; continuous infusion 2×MIR),Onset time (rats [4]; [9]),recovery time of the test animals' righting reflex (rats [5]),Approximate therapeutic index (rats [6]),Minimal lethal dose (rats [6]),Cortisol as an indicator to determine the presence of inhibition ([7]; Table A3),EC50 [7],Corticosterone as an indicator to determine the presence of inhibition ([8]; Table A3),EC50 [8],other results
C[C@H](c1ccccc1)n1cncc1C(=O)OCC1CCC1 [Compound A8],2.25 ± 2.64 min,Red urine (8/8),0.34 ± 0.21 min,0.1 to 0.5 mg/kg,2.15 min,9 to 14 min,Tremor (1/6),3 to 4 min,129 s,>10,>2 mg/kg,0,> 1000 nM,0,> 1000 nM,–
COCC1(COC(=O)c2cncn2[C@H](C)c2ccccc2)CCC1 [Compound A11],3.81 ± 1.49 min,Red urine (8/8),0.21 ± 0.10 min,0.01 to 0.1 mg/kg,3.75 min,14 to 18 min,Tremor (5/6),3 to 4 min,225 s,>12,>1 mg/kg,0,> 10000 nM,0,> 10000 nM,–
C[C@H](c1ccccc1)n1cncc1C(=O)OCC1CC(F)(F)C1 [Compound A12],4.04 ± 1.65 min,(8/8),0.16 ± 0.06 min,0.5 to 1 mg/kg,4.23 min,13 to 16 min,Tremor (4/6),3 to 4 min,254 s,>16,>10 mg/kg,0,> 1000 nM,0,–,"Adverse reactions: Restlessness (incidence) (rats [1]): Restlessness (2/8), Red urine"
CC(OC(=O)c1cncn1[C@H](C)c1ccccc1)C1CC1 (stereo partly shown) [Compound A16],2.63 ± 1.20 min,8/8,0.16 ± 0.07 min,0.1 to 0.5 mg/kg,2.78 min,12 to 14 min,Tremor (3/6),2 to 3 min,167 s,>33,>10 mg/kg,0,> 1000 nM,0,> 1000 nM,Adverse reactions: Tremor (incidence) (rats [1]): 2/8
C[C@H](c1ccccc1)n1cncc1C(=O)OC1CCC1 [Compound A17],5.78 ± 2.28 min,Red urine (8/8),0.13 ± 0.03 min,0.5 to 1 mg/kg,5.45 min,19 to 25 min,Tremor (2/6),2 to 3 min,327 s,>11,>6 mg/kg,0,> 10000 nM,0,> 10000 nM,"Adverse reactions: Tongue stretching (incidence) (rats [1]): Tongue stretching (2/8),"
C[C@H](c1ccccc1)n1cncc1C(=O)OCCC1CCC1 [Compound A18],4.77 ± 1.73 min,Red urine (8/8),0.20 ± 0.09 min,0.1 to 0.5 mg/kg,4.55 min,11 to 15 min,Tremor (5/6),3 to 4 min,273 s,>22,>5 mg/kg,0,> 1000 nM,0,> 1000 nM,–
C[C@H](c1ccccc1)n1cncc1C(=O)OCC1(C)COC1 [Compound B5],3.98 ± 1.34 min,Red urine (8/8),0.11 ± 0.02 min,0.1 to 0.5 mg/kg,4.25 min,12 to 14 min,Tremor (2/6),3 to 4 min,255 s,>11,>10 mg/kg,–,> 1000 nM,–,> 10000 nM,Cortisol as an indicator to determine the presence of inhibition ([7]; Table B3): 0; Corticosterone as an indicator to determine the presence of inhibition ([8]; Table B3): 0
CCC1(COC(=O)c2cncn2[C@H](C)c2ccccc2)COC1 [Compound B9],1.98 ± 1.21 min,8/8,0.39 ± 0.1 min,0.5 to 1 mg/kg,1.82 min,10 to 13 min,1/6,2 to 3 min,109 s,>12,>18 mg/kg,–,> 10000 nM,–,> 10000 nM,Adverse reactions: Restlessness (incidence) (rats [1]): 1/8; Adverse reactions: Restlessness (incidence) (rats [4]; continuous infusion 2×MIR): 2/6; Cortisol as an indicator to determine the presence of inhibition ([7]; Table B3): 0; Corticosterone as an indicator to determine the presence of inhibition ([8]; Table B3): 0
CCCC1(OC(=O)c2cncn2[C@H](C)c2ccccc2)COC1 [Compound B19],1.99 ± 1.39 min,8/8,0.31 ± 0.13 min,0.5 to 1 mg/kg,2.08 min,12 to 17 min,Tremor (5/6),3 to 4 min,125 s,>11,>20 mg/kg,–,> 10000 nM,–,> 10000 nM,Adverse reactions: Tremor (incidence) (rats [1]): 2/8; Cortisol as an indicator to determine the presence of inhibition ([7]; Table B3): 0; Corticosterone as an indicator to determine the presence of inhibition ([8]; Table B3): 0
CC(=O)C1(OC(=O)c2cncn2[C@H](C)c2ccccc2)COC1 [Compound C3],1.31 ± 0.95 min,urine (8/8),0.36 ± 0.12 min,0.5 to 1 mg/kg,1.25 min,–,–,–,75 s,>14,>10 mg/kg,–,> 1000 nM,–,> 1000 nM,"Adverse reactions: Restlessness (incidence) (rats [1]): Restlessness (3/8), Red; Onset time (rats [4]; [10]): 3 to 4 min; Recovery time after stopping infusion (rats [4]; [10]): 10 to 14 min; Types and incidence of adverse reactions (rats [4]; [10]): Restlessness (2/6), Tremor (3/6); Cortisol as an indicator to determine the presence of inhibition ([7]; Table C3): 0; Corticosterone as an indicator to determine the presence of inhibition ([8]; Table C3): 0"
CC(=O)CCOC(=O)c1cncn1[C@H](C)c1ccccc1 [Compound C7],1.68 ± 0.88 min,Red urine (8/8),0.15 ± 0.06 min,0.1 to 0.5 mg/kg,1.87 min,–,–,–,112 s,>10,>4 mg/kg,–,> 1000 nM,–,> 1000 nM,"Adverse reactions: Muscle twitching (incidence) (rats [1]): Muscle twitching (4/8),; Onset time (rats [4]; [10]): 3 to 4 min; Recovery time after stopping infusion (rats [4]; [10]): 8 to 14 min; Types and incidence of adverse reactions (rats [4]; [10]): Tremor (6/6); Cortisol as an indicator to determine the presence of inhibition ([7]; Table C3): 0; Corticosterone as an indicator to determine the presence of inhibition ([8]; Table C3): 0"

# From patent US11434205B2, “Substituted imidazole carboxylate derivatives and the use thereof” (priority 2018, dated 2022)
